According to patent US20230098111A1, “COMPOSITIONS AND METHODS TO TREAT NEUROLOGICAL DISEASES” (University of Southern California, priority 2020, published 2023):
“Also recorded” adds a separate entry of the source.

Key:
[1] = target: T1, Neutral Sphingomyelinase 2 (Mus musculus, UniProt Q9JJY3); settings: mice overexpressing TDP-43; cited from earlier work
T1 construct: In mice overexpressing TDP-43, neurons secrete exosomes containing phospho-TDP-43; host or cells: neurons of TDP-43-overexpressing mice (endogenous enzyme, in vivo)
T1 sequence (Q9JJY3 1-655): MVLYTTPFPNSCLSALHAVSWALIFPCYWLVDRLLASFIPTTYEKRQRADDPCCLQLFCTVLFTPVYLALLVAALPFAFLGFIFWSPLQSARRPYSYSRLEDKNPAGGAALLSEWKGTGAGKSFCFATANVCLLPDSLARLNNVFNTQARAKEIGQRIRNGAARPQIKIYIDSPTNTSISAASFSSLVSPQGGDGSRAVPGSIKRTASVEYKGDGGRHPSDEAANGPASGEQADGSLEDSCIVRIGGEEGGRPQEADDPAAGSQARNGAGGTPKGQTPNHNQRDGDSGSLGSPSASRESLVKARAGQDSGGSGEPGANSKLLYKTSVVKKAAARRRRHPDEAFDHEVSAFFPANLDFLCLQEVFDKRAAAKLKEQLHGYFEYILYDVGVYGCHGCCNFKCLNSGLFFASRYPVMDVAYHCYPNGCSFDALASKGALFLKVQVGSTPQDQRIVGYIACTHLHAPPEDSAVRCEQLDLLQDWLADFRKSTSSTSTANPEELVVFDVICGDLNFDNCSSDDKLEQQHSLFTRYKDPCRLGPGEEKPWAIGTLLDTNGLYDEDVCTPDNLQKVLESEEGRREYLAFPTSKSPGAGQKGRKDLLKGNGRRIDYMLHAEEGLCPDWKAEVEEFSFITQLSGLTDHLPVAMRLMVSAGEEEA

C9ORF72 FTD iNs = experiment: Survival of C9ORF72 FTD iNs; type: cell-based, human; settings: Apilimod+GW4869 (exocytosis blocker)
From the text: (A) Survival of C9ORF72 iNs with DMSO or apilimod. Log-rank test, 100 iNs per group. […] Log-rank test, 100 iNs per group. […] Mean+/−s.e.m. Kruskal-Wallis Test.
(A, B) Survival of C9-FTD iNs treated with DMSO and Apilimod (A) or Apilimod+GW4869 (exocytosis blocker) (B). Log-rank test. 100 iNs per group. iNs quantified from 3 independent replicates per group.
Mutations in MAPT cause FTD with tau aggregates. To determine if iNs from FTD patients display neurodegenerative phenotypes, an established method to generate cortical neurons from iPSCs by forced expression of NGN2 was used. 3 FTD patient iPSC lines harboring a MAPTV337M mutation and their CRISPR-edited isogenic controls from a published cell bank were utilized. Neurons from MAPT-mutant iPSCs display increased phosphorylated and oligomeric tau, similar to post-mortem patient tissue (FIG. 18A). […] Thus, MAPT iNs display key features of FTD with tau pathology.
Thus, C9ORF72 iNs provide a robust model of FTD.
(§1) PIKFYVE inhibition rescues neurodegeneration through secretory autophagy.

C9-ALS/FTD iMNs = experiment: Exosome secretion from iMNs; type: cell-based, human; settings: apilimod+GW4869
From the text: (A) Western blot of TSG101, TDP-43, and Neurofilament heavy chain levels in the exosome fraction secreted from control or C9-ALS/FTD iMNs upon apilimod treatment. […] Kruskal-Wallis test for B, C. N=3 biological replicates per condition, one line per genotype. (D) Number of poly(GR)-GFP+ exosomes secreted from iMNs expressing exogenous poly(GR)-GFP upon DMSO or apilimod treatment. N=4 biological replicates. Exosomes were labeled with CFSE-red dye to enable detection by FACS. Unpaired t-test.
Blocking PIKFYVE activity induces secretory autophagy. […] Thus, secretory autophagy maintains proteostasis and prevents neuronal death in TDP-43 mouse models. PIKFYVE inhibition blocks autophagosome-lysosome fusion by […] their ratio in endosomal, lysosomal and autophagosomal membranes. One might expect this to be detrimental to ALS iMNs, which can degenerate due to misfolded protein accumulation. However, inhibition of autophagosome-lysosome fusion using PIKFYVE inhibition or bafilomycin can activate secretory autophagy to jettison misfolded proteins from cells. […] To test this hypothesis, exosomal release in human iMNs upon PIKFYVE inhibition was examined. […] Thus, PIKFYVE inhibition induces the secretion of TDP-43 and C9ORF72 DPRs from iMNs.
Determining if PIKFYVE suppression rescues neurodegeneration through secretory autophagy. […] ASOs were designed targeting […]. It was confirmed that the ASOs suppressed RAB27A expression in iMNs.

TARDBP mice = experiment: Motor deficits in TDP-43 (TARDBP) mice; type: in vivo
From the text: (A) Gait impairment, (B) Kyphosis, and (C) Tremor scoring in wild-type (WT) and TDP-43 homozygous mice treated with a negative control (NC) ASO or Pikfyve ASO at P0. Fore each assay, a score of 0 indicates no phenotype and 4 indicates the most severe phenotype.
To determine if ASO-mediated PIKFYVE suppression can rescue neurodegeneration in mouse models of ALS, two mouse models—a C9ORF72 model based on adeno-associated virus (AAV)-mediated overexpression of poly(GR) and a TDP-43 mouse mode were established. Both models develop neurodegeneration, motor impairment, and paralysis. […]

C9-FTD iNs = experiment: Exosome secretion from iNs; type: cell-based, human; settings: apilimod+GW4869
From the text: (A) […] of exosomes from apilimod-treated C9-FTD iNs. (B) Western blot of TSG101, TDP-43, and Neurofilament heavy chain levels in the exosome fraction secreted from control or C9-FTD iNs upon apilimod treatment. (C,D) Quantification of the exosome marker TSG101 (C) or TDP-43 (D) in the exosome fraction of control and C9-FTD iNs treated with DMSO, apilimod, or apilimod+GW4869. Kruskal-Wallis test for B, C. N=3 biological replicates per condition, one line per genotype. (E) Number of poly(GR)-GFP+ exosomes secreted from iNs expressing exogenous poly(GR)-GFP upon DMSO or apilimod treatment. N=4 biological replicates. Exosomes were labeled with CFSE-red dye to enable detection by FACS. Unpaired t-test.
To test this, exosome release from iNs upon PIKFYVE inhibition was examined. […] Thus, PIKFYVE inhibition induces the secretion of TDP-43 and C9ORF72 DPRs from iNs
as §1

sporadic ALS iMNs = experiment: Survival of sporadic ALS iMNs
From the text: (A) Survival of control (CTRL) and C9ORF72 ALS/FTD patient (C9-ALS) iMNs with a 12-hour pulse treatment of excess glutamate shown for each individual line separately. iMNs quantified from 3 independent iMN conversions per line. (B-D) Immunofluorescence analysis of total TDP-43 (B) and quantification of the ratio of nuclear to cytoplasmic TDP-43 in control, C9-ALS (C), or sporadic ALS (D) iMNs. MNs from 2 controls and 2 C9-ALS patients (C) or 4 sporadic ALS patients (D) were quantified. n=30 (controls), 30 (C9-ALS/FTD), or 36 (sporadic) iMNs per line per condition from 2 biologically independent iMN conversions of 2 control, 2 C9-ALS/FTD, or 4 sporadic ALS lines were quantified. Each gray circle represents a single iMN. Median±interquartile range. Unpaired Mann-Whitney test. Scale bars: 5 μm. Dotted lines outline the nucleus and cell body. (E) Survival of control and sporadic iMNs with glutamate treatment. iMNs quantified from 3 independent iMN conversions per line. For iMN survival experiments, significance was measured by 2-sided log-rank test using the entire survival time course.
(B) Survival of C9-ALS/FTD iMNs with DMSO or apilimod. (C) Survival of sporadic ALS induced motor neurons (iMNs) with DMSO or apilimod. (D) Survival of C9-ALS/FTD iMNs with a scrambled ASO or PIKFYVE ASOs, 100 iMNs per group. […] Unpaired t-test. iMN survival experiments analyzed by log-rank test. […]

Pikfyve [2] = experiment: Pikfyve qRT-PCR of whole brain after intracerebroventricular ASO; type: in vivo, mice; settings: intracerebroventricular ASO injection at P0/P1, brain at P7
Experimental: (§2) (A) Mass spectrometry analysis of Optineurin (OPTN) levels in the cerebrospinal fluide (CSF) of mice 2 hours after direct intracerebroventral injection of a vehicle control or apilimod. n=3 mice per group. The ratio of Optineurin in the CSF of apilimod:vehicle-injected mice is shown. (B) Poly(GR)+ DPR punctae in wild-type or C9ORF72 mice treated with intracerebroventricular injection of apilimod for 48 hours. Mean+/−s.e.m. Data points are individual neurons taken across 3 mice per group. One-way ANOVA. […] Unpaired t-test. (D) Pikfyve qRT-PCR of whole brain. n=3 mice per group at postnatal day 7. Unpaired t-test. (E) Gait impairment scoring in wild-type (WT) and TDP-43 homozygous mice treated with a negative control (NC) ASO or Pikfyve ASO at postnatal day 1. Mean+/−s.e.m. Unpaired t-test at each time point between the negative control and Pikfyve ASO conditions for TDP-43 mice. A score of 0 indicates no phenotype and 4 indicates the most severe phenotype. (F) Vehicle or GW4869 were delivered by intraperitoneal injection every 48 h starting from day 6 in negative control and Pikfyve ASO-treated mice. Mean+/−s.e.m. One-way ANOVA at each time point between the four conditions. *p<0.05, **p<0.01, ***p<0.001, ****p<0.0001.
(A) Gait impairment, (B) Kyphosis, and (C) Tremor scoring in wild-type (WT) and TDP-43 homozygous mice treated with a negative control (NC) ASO or Pikfyve ASO at P0. […]

[3] = tested on: C9ORF72 dipeptide repeat proteins; experiment: DPR levels in C9ORF72-BAC mice; type: in vivo; settings: ASO injected into hippocampus, 7 days (12 days in FIG. 8-10)
Experimental: DRP aggregates (Poly(GR) red) accumulate in the cells (white outline) of C9-BAC mice.
as §2
PIKFYVE inhibition rescues neurodegeneration in vivo. […] Since TARDBP overexpressing mice show motor deficits and neurodegeneration, we used TARDBP mice to test the efficacy of Pikfyve suppression.
(§3) Determining whether PIKfyve-targeting ASOs can reverse ALS disease progression in vivo. To determine if PIKfyve-targeting ASOs can reverse ALS disease processes in vivo, can PIKfyve ASOs lower levels of C9ORF72 dipeptide repeat proteins in mice. Dipeptide repeat proteins are generated from the C9ORF72 repeat expansion by repeat-associated non-AUG-dependent translation and are neurotoxic.
(§4) To determine if ASO-mediated Pikfyve suppression lowers C9ORF72 poly(GR) levels in mice, Pikfyve ASOs were injected into the hippocampus of adult C9ORF72-BAC mice, which harbor a C9ORF72 repeat expanded transgene and accumulate poly(GR)+ aggregates in hippocampal neurons.

TDP-43 mutant mice = experiment: TDP-43 pathology, neurodegeneration and survival in TDP-43 mice; type: in vivo
From the text: (A, B) Images (A) and quantification (B) of phosphorylated TDP-43 (pTDP43)+ punctae in spinal motor neurons of day 21 wild-type or TDP-43 mutant mice treated with a negative control (NC ASO) or Pikfyve ASO. Each data point represents one mouse, mean+/−s.e.m., one-way ANOVA. In (A), each arrow marks a pTDP-43+ puncta. […] (C, D) Images (C) and quantification (D) of nuclear and cytoplasmic TDP-43 intensity in spinal motor neurons of day 21 wild-type or TDP-43 mutant mice treated with a negative control (NC ASO) or Pikfyve ASO. Each data point represents one mouse, mean+/−s.e.m., one-way ANOVA. […] (E, F) Images (E) and quantification (F) of the average number of Neurotrace (Nissl)+ spinal motor neurons per ventral horn per mouse. Each data point represents one mouse, mean, one-way ANOVA. In (E), orange dotted lines outline the ventral horn area quantified and white dotted lines outline the spinal cord. (G) Survival of TDP-43 mutant mice treated with a negative control (NC ASO) or Pikfyve ASO. Log-rank test. *p<0.05, **p<0.01, ***p<0.001, ****p<0.0001.

Pikfyve [4] = experiment: Pikfyve expression in hippocampus after ASO injection; type: in vivo, mice; settings: direct ASO injection into hippocampus, 7 days
From the text: as §3, §4

O=C(/C=C/c1ccc(/C=C/C(=O)Nc2ccc(C3=NCCN3)cc2)cc1)Nc1ccc(C2=NCCN2)cc1 [GW4869]
TDP-43 mouse survival [1]: decreased TDP-43 mouse survival
neurodegeneration [1]: accelerated neurodegeneration
neuronal cytoplasmic TDP-43 aggregates [1]: increased neuronal accumulation of cytoplasmic TDP-43 aggregates
apilimod rescue of C9ORF72 iN survival in presence of GW4869 (C9ORF72 FTD iNs): blocked apilimod's ability to rescue
apilimod-induced release of exosomes containing TSG101 and TDP-43 from ALS iMNs with GW4869 (C9-ALS/FTD iMNs): blocked apilimod-induced release of exosomes
motor rescue by PIKFYVE ASOs in presence of GW4869 (TARDBP mice; GW4869 intraperitoneal every 48 h from day 6): blocked motor rescue by PIKFYVE ASOs
apilimod-induced release of exosomes from C9ORF72 iNs with GW4869 (C9-FTD iNs): impaired apilimod-induced release of exosomes

Nc1ccc(C(=O)Nc2cccc(-c3nc(N4CCOCC4)c4oc5ncccc5c4n3)c2)cn1 [YM201636]
sporadic ALS iMN survival (sporadic ALS iMNs): rescued C9ORF72 and sporadic ALS

GGTGCATGCTCGGAGGTCTC (chemistry not given here) [Pikfyve ASO, mouse Pikfyve ASO gapmer for in vivo experiments, 5-10-5 2′-MOE, phosphorothioate]
Pikfyve mRNA levels (whole brain qRT-PCR) (Pikfyve [2]): reduced Pikfyve mRNA levels
Pikfyve mRNA levels (whole brain qRT-PCR) (Pikfyve [2]; listed as Pikfyve-targeting ASO): significantly decreased Pikfyve expression
DPR / poly(GR)+ aggregates in hippocampus of C9ORF72-BAC mice [3]: significantly reduced; also recorded: significantly less DRP aggregates
DPR / poly(GR)+ aggregates in hippocampus of C9ORF72-BAC mice ([3]; listed as PIKfyve ASO): significantly lowered
DPR / poly(GR)+ aggregates in hippocampus of C9ORF72-BAC mice ([3]; listed as Pikfyve-suppressing ASO): also lowered DPRs
survival of TDP-43 mutant mice (TDP-43 mutant mice; NC ASO vs Pikfyve ASO): rescues
neurodegeneration in TDP-43 mice (TDP-43 mutant mice; Nissl+ spinal motor neurons per ventral horn): rescues
TDP-43 pathology in TDP-43 mice (TDP-43 mutant mice; spinal motor neurons, day 21, NC ASO vs Pikfyve ASO): rescues
Pikfyve expression in hippocampus (Pikfyve [4]): significantly reduced
Pikfyve expression in hippocampus (Pikfyve [4]; listed as PIKfyve ASO): significantly lowered
motor deficits in TARDBP mice (TARDBP mice; intracerebroventricular injection of Pikfyve ASO): rescued motor deficits
